Measurements taken from US20260285850A1, “SUBSTITUTED OXAZOLIDINONES AND IMIDAZOLINONES AS HERBICIDES” (FMC CORPORATION, priority 2023, published 2026).

How the values were obtained:
Format in all cases: in vivo
[1] = system: rice (Oryza sativa); test: Test B flooded paddy test, visual plant response rating 0-100; details: 250 g ai/ha, Flood, applied to paddy water, evaluated after 13 days
Procedure, shortened: (§1)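 Visual evaluation after 13 days. Water-applied treatment, 3 cm flood depth held constant, plants at 2-leaf stage at treatment.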

[2] = system: ducksalad (Heteranthera limosa); test: as above; details: 250 g ai/ha, Flood, applied to paddy water, evaluated after 13 days
Procedure, shortened: as §1

[3] = system: barnyardgrass (Echinochloa crusgalli); test: as above; details: 250 g ai/ha, Flood, applied to paddy water, evaluated after 13 days
Procedure, shortened: as §1

[4] = system: sedge, umbrella (small-flower umbrella sedge, Cyperus difformis); test: as above; details: 250 g ai/ha, Flood, applied to paddy water, evaluated after 13 days
Procedure, shortened: as §1

[5] = system: barnyardgrass (Echinochloa crus-galli); test: Test A postemergence application, visual injury rating 0-100
Procedure, shortened: (§2)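 Preemergence directed soil spray or postemergence spray (2-10 cm, 1-2 leaf); loam/sand mix; compound in non-phytotoxic solvent + surfactant. Greenhouse, 10 d. Visual injury vs untreated, 0 = none, 100 = complete control.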

[6] = system: ragweed (common ragweed, Ambrosia artemisiifolia); test: as above
Procedure, shortened: as §2

[7] = system: soybean (Glycine max); test: as above
Procedure, shortened: as §2

[8] = system: ryegrass, Italian (italian ryegrass, Lolium multiflorum); test: as above
Procedure, shortened: as §2

[9] = system: horseweed (Erigeron canadensis); test: as above
Procedure, shortened: as §2

[10] = system: kochia (Bassia scoparia); test: as above
Procedure, shortened: as §2

[11] = system: oat, wild (wild oat, Avena fatua); test: as above
Procedure, shortened: as §2

[12] = system: green foxtail (Setaria viridis); test: as above
Procedure, shortened: as §2

[13] = system: wheat (Triticum aestivum); test: as above
Procedure, shortened: as §2

[14] = system: blackgrass (Alopecurus myosuroides); test: as above
Procedure, shortened: as §2

[15] = system: palmer (palmer amaranth, palmer pigweed, Amaranthus palmeri); test: as above
Procedure, shortened: as §2

[16] = system: corn (Zea mays); test: as above
Procedure, shortened: as §2

[17] = system: barnyardgrass (Echinochloa crus-galli); test: Test A preemergence soil spray, visual injury rating 0-100; details: 10 days
Procedure, shortened: as §2

[18] = system: ragweed (common ragweed, Ambrosia artemisiifolia); test: as above; details: 10 days
Procedure, shortened: as §2

[19] = system: soybean (Glycine max); test: as above; details: 10 days
Procedure, shortened: as §2

[20] = system: ryegrass, Italian (italian ryegrass, Lolium multiflorum); test: as above; details: 10 days
Procedure, shortened: as §2

[21] = system: kochia (Bassia scoparia); test: as above; details: 10 days
Procedure, shortened: as §2

[22] = system: oat, wild (wild oat, Avena fatua); test: as above; details: 10 days
Procedure, shortened: as §2

[23] = system: green foxtail (Setaria viridis); test: as above; details: 10 days
Procedure, shortened: as §2

[24] = system: wheat (Triticum aestivum); test: as above; details: 10 days
Procedure, shortened: as §2

[25] = system: blackgrass (Alopecurus myosuroides); test: as above; details: 10 days
Procedure, shortened: as §2

[26] = system: palmer (palmer amaranth, palmer pigweed, Amaranthus palmeri); test: as above; details: 10 days
Procedure, shortened: as §2

[27] = system: corn (Zea mays); test: as above; details: 10 days
Procedure, shortened: as §2

[28] = 62 g ai/ha, postemergence, 10 days, 0 = no effect, 100 = complete control
[29] = Postemergence, 16 g ai/ha, greenhouse 10 days, 0 no effect, 100 complete control
[30] = 62 g ai/ha, 0 = no effect, 100 = complete control

## COC(=O)COC(=O)C1=CCC(NC(=O)C2(C)CN(c3cc(Cl)cc(Cl)c3)C(=O)O2)C1 (centres unmarked) [Compound 109]
[1]
  Plant response rating, Rice (0 to 100 scale, 0 is no effect and 100 is complete control): 0
[2]
  Plant response rating, Ducksalad (0 to 100 scale, 0 is no effect and 100 is complete control): 0
[3]
  Plant response rating, Barnyardgrass (0 to 100 scale, 0 is no effect and 100 is complete control): 0
[4]
  Plant response rating, Sedge, Umbrella (0 to 100 scale, 0 is no effect and 100 is complete control): 0
[5]; [28]
  Barnyardgrass plant response rating (0-100): 20
[5]; [29]
  Barnyardgrass plant response rating (0 to 100 scale): 0
[6]; [28]
  Ragweed plant response rating (0-100): 0
[6]; [29]
  Ragweed plant response rating (0 to 100 scale): 0
[7]; [28]
  Soybean plant response rating (0-100): 0
[7]; [29]
  Soybean plant response rating (0 to 100 scale): 0
[8]; [28]
  Ryegrass, Italian plant response rating (0-100): 0
[8]; [29]
  Ryegrass, Italian plant response rating (0 to 100 scale): 0
[9]; [28]
  Horseweed plant response rating (0-100): 20
[9]; [29]
  Horseweed plant response rating (0 to 100 scale): 0
[10]; [28]
  Kochia plant response rating (0-100): 0
[10]; [29]
  Kochia plant response rating (0 to 100 scale): 0
[11]; [28]
  Oat, Wild plant response rating (0-100): 0
[11]; [29]
  Oat, Wild plant response rating (0 to 100 scale): 0
[12]; [28]
  Foxtail, Green plant response rating (0-100): 0
[12]; [29]
  Foxtail, Green plant response rating (0 to 100 scale): 0
[13]; [28]
  Wheat plant response rating (0-100): 0
[13]; [29]
  Wheat plant response rating (0 to 100 scale): 0
[14]; [28]
  Blackgrass plant response rating (0-100): 30
[14]; [29]
  Blackgrass plant response rating (0 to 100 scale): 0
[15]; [28]
  Pigweed, Palmer plant response rating (0-100): 40
[15]; [29]
  Pigweed, Palmer plant response rating (0 to 100 scale): 0
[16]; [28]
  Corn plant response rating (0-100): 0
[16]; [29]
  Corn plant response rating (0 to 100 scale): 0
[17]; 16 g ai/ha, 0 to 100 scale
  Barnyardgrass plant response rating: 0
[17]; [30]
  Barnyardgrass plant response rating (0-100): 0
[18]; 16 g ai/ha, 0 to 100 scale
  Ragweed plant response rating: 0
[18]; [30]
  Ragweed plant response rating (0-100): 0
[19]; 16 g ai/ha, 0 to 100 scale
  Soybean plant response rating: 0
[19]; [30]
  Soybean plant response rating (0-100): 0
[20]; 16 g ai/ha, 0 to 100 scale
  Ryegrass, Italian plant response rating: 0
[20]; [30]
  Ryegrass, Italian plant response rating (0-100): 0
[21]; 16 g ai/ha, 0 to 100 scale
  Kochia plant response rating: 0
[21]; [30]
  Kochia plant response rating (0-100): 0
[22]; 16 g ai/ha, 0 to 100 scale
  Oat, Wild plant response rating: 0
[22]; [30]
  Oat, Wild plant response rating (0-100): 0
[23]; 16 g ai/ha, 0 to 100 scale
  Foxtail, Green plant response rating: 0
[23]; [30]
  Foxtail, Green plant response rating (0-100): 0
[24]; 16 g ai/ha, 0 to 100 scale
  Wheat plant response rating: 0
[24]; [30]
  Wheat plant response rating (0-100): 0
[25]; 16 g ai/ha, 0 to 100 scale
  Blackgrass plant response rating: 0
[25]; [30]
  Blackgrass plant response rating (0-100): 0
[26]; 16 g ai/ha, 0 to 100 scale
  Pigweed, Palmer plant response rating: 0
[26]; [30]
  Pigweed, Palmer plant response rating (0-100): 0
[27]; 16 g ai/ha, 0 to 100 scale
  Corn plant response rating: 0
[27]; [30]
  Corn plant response rating (0-100): 0
